PubChem BioAssay AID1918996 (Molecular Pharmacology Branch, DTP, NCI, 2023)

System: 349418-098-R-PDC complex spheroid growth
Assay: Anticancer human tumor 349418-098-R-PDC patient-derived lung adenocarcinoma cell line growth inhibition [AhR]
Conditions: for IC50: curve of first compound; for viability, T/C: stronger effect = lower value; active = viability on the fitted dose curve at most 10% of control; inactive = the rest
Summary of the method: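 Complex tumor spheroids co-cultured with HUVEC and human MSC stroma; AhR antagonists tested in combination with standard-of-care and investigational agents. Top concentration at or near clinical Cmax (else 10 microM), half-log dilutions; growth expressed as percent test/control.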

[1] = second compound 0.1 µM, first compound 0.0316 µM
[2] = second compound 0.1 µM, first compound 0.1 µM
[3] = second compound 0.1 µM, first compound 0.316 µM
[4] = second compound 0.1 µM, first compound 1 µM
[5] = second compound 0.316 µM, first compound 0.0316 µM
[6] = second compound 0.316 µM, first compound 0.1 µM
[7] = second compound 0.316 µM, first compound 0.316 µM
[8] = second compound 0.316 µM, first compound 1 µM
[9] = second compound 1 µM, first compound 0.0316 µM
[10] = second compound 1 µM, first compound 0.1 µM
[11] = second compound 1 µM, first compound 0.316 µM
[12] = second compound 1 µM, first compound 1 µM
[13] = second compound 3.16 µM, first compound 0.0316 µM
[14] = second compound 3.16 µM, first compound 0.1 µM
[15] = second compound 3.16 µM, first compound 0.316 µM
[16] = second compound 3.16 µM, first compound 1 µM
[17] = second compound 10 µM, first compound 0.0316 µM
[18] = second compound 10 µM, first compound 0.1 µM
[19] = second compound 10 µM, first compound 0.316 µM
[20] = second compound 10 µM, first compound 1 µM
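Note: spheroids exposed to agents for seven days before luminescence viability read.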
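Throughout, for viability, T/C: spheroids also contain HUVEC endothelial cells and human MSC stroma.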

CC1COCCN1c1cc(-c2ccnn2C)c2ccnc(-c3ccn[nH]3)c2n1 (stereo not given) + Cc1cncc(-c2nc(NCCc3c[nH]c4ccccc34)c3ncn(C(C)C)c3n2)c1
0.101 µM: IC50 (second compound 1 µM)
0.153 µM: IC50 (second compound 0.1 µM)
inactive: viability, T/C (second compound 0.1 µM, first compound 0.00316 µM) 105% | viability, T/C (second compound 0.1 µM, first compound 0.01 µM) 105% | viability, T/C [1] 99.7% | viability, T/C [2] 71.6% | viability, T/C [3] 13.1% | viability, T/C (second compound 0.316 µM, first compound 0.00316 µM) 90.9% | viability, T/C (second compound 0.316 µM, first compound 0.01 µM) 92.4% | viability, T/C [5] 91.4% | viability, T/C [6] 68.5% | viability, T/C [7] 15.7% | viability, T/C (second compound 1 µM, first compound 0.00316 µM) 74.1% | viability, T/C (second compound 1 µM, first compound 0.01 µM) 81.4% | viability, T/C [9] 81.5% | viability, T/C [10] 50.1% | viability, T/C [11] 13.2% | viability, T/C [12] 8.54% | viability, T/C (second compound 3.16 µM, first compound 0.00316 µM) 14.2% | viability, T/C (second compound 3.16 µM, first compound 0.01 µM) 15.1% | viability, T/C [13] 12.4%
0.15 µM: IC50 (second compound 0.316 µM)
active: viability, T/C [4] 7.48% | viability, T/C [8] 7.2% | viability, T/C [14] 7.18% | viability, T/C [15] 6.8% | viability, T/C [16] 5.72% | viability, T/C (second compound 10 µM, first compound 0.00316 µM) 0.74% | viability, T/C (second compound 10 µM, first compound 0.01 µM) 0.66% | viability, T/C [17] 0.7% | viability, T/C [18] 0.73% | viability, T/C [19] 0.69% | viability, T/C [20] 1.49%
< 0.00316 µM: IC50 (second compound 3.16 µM) | IC50 (second compound 10 µM)

COc1ccc([C@@H](O)c2cc(-c3ncnc4cc(N5CCOCC5)ccc34)c(F)cc2Cl)nn1 + Cc1cncc(-c2nc(NCCc3c[nH]c4ccccc34)c3ncn(C(C)C)c3n2)c1
inactive: viability, T/C [1] 100% | viability, T/C [2] 101% | viability, T/C [3] 92.5% | viability, T/C [4] 88.8% | viability, T/C (second compound 0.1 µM, first compound 3.16 µM) 58.1% | viability, T/C (second compound 0.1 µM, first compound 10 µM) 16.8% | viability, T/C [5] 103% | viability, T/C [6] 94.7% | viability, T/C [7] 89.9% | viability, T/C [8] 93.3% | viability, T/C (second compound 0.316 µM, first compound 3.16 µM) 58.8% | viability, T/C (second compound 0.316 µM, first compound 10 µM) 14.1% | viability, T/C [9] 81% | viability, T/C [10] 79.7% | viability, T/C [11] 80.5% | viability, T/C [12] 68.2% | viability, T/C (second compound 1 µM, first compound 3.16 µM) 57.9% | viability, T/C (second compound 1 µM, first compound 10 µM) 19.4% | viability, T/C [13] 16.5% | viability, T/C [14] 16.7% | viability, T/C [15] 12.7% | viability, T/C [16] 12.5% | viability, T/C (second compound 3.16 µM, first compound 3.16 µM) 11.9% | viability, T/C (second compound 3.16 µM, first compound 10 µM) 9.7%
active: viability, T/C [17] 0.93% | viability, T/C [18] 0.92% | viability, T/C [19] 1.03% | viability, T/C [20] 1.37% | viability, T/C (second compound 10 µM, first compound 3.16 µM) 1.91% | viability, T/C (second compound 10 µM, first compound 10 µM) 3.18%
3.84 µM: IC50 (second compound 1 µM)
< 0.0316 µM: IC50 (second compound 3.16 µM) | IC50 (second compound 10 µM)
3.97 µM: IC50 (second compound 0.316 µM)
4.01 µM: IC50 (second compound 0.1 µM)
